Source: the Kinase Knowledgebase extract (Sharma et al. 2016)

Target: ROCK2 (human) (UniProt O75116)
Test: Assessment of ROCK2 Kinase Activity

Chain of ROCK2 (human) (O75116 whole entry, looked up): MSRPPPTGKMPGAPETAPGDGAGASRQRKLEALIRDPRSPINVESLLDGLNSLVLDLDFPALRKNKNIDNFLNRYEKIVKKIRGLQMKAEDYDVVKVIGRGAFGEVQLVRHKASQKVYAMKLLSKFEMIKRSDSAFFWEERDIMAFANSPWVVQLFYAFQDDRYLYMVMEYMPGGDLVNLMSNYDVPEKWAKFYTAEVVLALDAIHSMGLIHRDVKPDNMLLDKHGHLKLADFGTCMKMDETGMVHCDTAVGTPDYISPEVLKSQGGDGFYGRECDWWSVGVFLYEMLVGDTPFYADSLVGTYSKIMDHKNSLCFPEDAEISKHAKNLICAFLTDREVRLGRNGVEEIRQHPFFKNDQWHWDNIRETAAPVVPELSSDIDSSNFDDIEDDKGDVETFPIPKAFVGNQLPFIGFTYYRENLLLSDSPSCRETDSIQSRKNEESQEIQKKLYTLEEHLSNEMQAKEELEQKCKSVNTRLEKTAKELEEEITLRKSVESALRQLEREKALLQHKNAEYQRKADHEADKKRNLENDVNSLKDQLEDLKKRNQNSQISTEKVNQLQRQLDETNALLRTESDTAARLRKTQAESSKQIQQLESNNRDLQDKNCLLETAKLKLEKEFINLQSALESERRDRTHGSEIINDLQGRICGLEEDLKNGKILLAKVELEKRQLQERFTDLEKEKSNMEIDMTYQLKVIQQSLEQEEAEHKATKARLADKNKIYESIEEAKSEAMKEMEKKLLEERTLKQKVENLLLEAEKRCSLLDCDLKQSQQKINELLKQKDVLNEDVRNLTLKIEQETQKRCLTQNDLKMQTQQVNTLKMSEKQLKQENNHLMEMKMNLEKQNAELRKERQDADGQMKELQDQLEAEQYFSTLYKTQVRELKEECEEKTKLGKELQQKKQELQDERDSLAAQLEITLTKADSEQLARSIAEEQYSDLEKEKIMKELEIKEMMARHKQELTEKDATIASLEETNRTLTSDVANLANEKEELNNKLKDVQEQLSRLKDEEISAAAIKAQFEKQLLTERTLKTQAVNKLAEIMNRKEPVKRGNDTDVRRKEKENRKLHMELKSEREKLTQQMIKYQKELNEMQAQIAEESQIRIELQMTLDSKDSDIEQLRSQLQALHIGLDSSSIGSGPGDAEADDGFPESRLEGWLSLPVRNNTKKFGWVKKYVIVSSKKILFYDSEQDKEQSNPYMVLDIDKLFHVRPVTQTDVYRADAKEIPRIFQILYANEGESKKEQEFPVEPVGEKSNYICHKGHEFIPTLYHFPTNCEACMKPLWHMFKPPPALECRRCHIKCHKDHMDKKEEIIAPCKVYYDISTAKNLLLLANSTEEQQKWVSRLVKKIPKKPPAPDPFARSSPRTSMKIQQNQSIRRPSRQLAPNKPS

SMILES	IC50 [nM]
CN(C)C=NS(=O)(=O)c1cc(CN[C@H]2CC[C@@H](Oc3ccc4cnccc4c3Cl)CC2)ccc1Cl	≤ 1000
COc1cc(Nc2cc3cc(O[C@H]4CC[C@@H](N)CC4)ccc3cn2)cc(OC)c1OC	≤ 1000
N[C@H]1CC[C@@H](Oc2ccc3cncc(Cl)c3c2)CC1	≤ 1000
Clc1c(OC2CCC(NC3CCCCC3)CC2)ccc2cnccc12 (stereo not given)	≤ 1000
CC1(c2ccc(CNC3CCC(Oc4ccc5cnccc5c4)CC3)cc2)NC(=O)NC1=O (stereo not given)	≤ 1000
N[C@H]1CC[C@@H](Oc2ccc3cnccc3c2Br)CC1	≤ 1000

The next lines start with the values.

IC50 [nM]	SMILES
≤ 1000	c1cc2cc(O[C@H]3CC[C@@H](NC4CC4)CC3)ccc2cn1
≤ 1000	N[C@H]1CC[C@H](Oc2c(Cl)cc3cnccc3c2Cl)CC1
≤ 1000	CC(C)N[C@H]1CC[C@@H](Oc2ccc3cnccc3c2)CC1
≤ 1000	N[C@H]1CC[C@@H](Oc2ccc3cnccc3c2-c2ccsc2)CC1
≤ 1000	CCc1cncc2ccc(O[C@H]3CC[C@@H](N)CC3)cc12
≤ 1000	CC(=O)Nc1ccc(CN[C@H]2CC[C@@H](Oc3ccc4cnccc4c3)CC2)cc1
≤ 1000	c1cncc(CN[C@H]2CC[C@@H](Oc3ccc4cnccc4c3)CC2)c1
≤ 1000	N[C@H]1CC[C@@H](Oc2ccc3cnccc3c2Cl)CC1
≤ 1000	C=Cc1c(O[C@H]2CC[C@@H](N)CC2)ccc2cnccc12
